Results filed as inconclusive are left out. Active and inactive are the calls of the source. No rule for the calls is given here. Some results are limits rather than exact numbers.

Experimental findings from PubChem BioAssay AID488890 (Southern Research Specialized Biocontainment Screening …, 2010) are described below.

The test system of this assay is Mycobacterium tuberculosis non-replicating, growth inhibition. Briefly: growth inhibition of non-replicating M. tuberculosis (AID 488890).
In general, IC50 refers to the concentration at which inhibition is half-maximal. With `Cc1c(CN2CCC(CO)(CCOc3ccccc3)CC2)[nH]c2ccc(Cl)cc12`, the IC50 was 15.9 µM (inactive). `CC1CCCC(NCC(O)COC(c2ccc(F)cc2)c2ccc(F)cc2)C1C` (stereo unspecified): the IC50 is 5.8 µM. `NC(=O)c1ccc(-c2ccc(Br)cc2)o1`: the IC50 was 1.93 µM. The result for `C/C(=N\Nc1nc2ccccc2nc1C)c1ccccc1O` reads 1.65 µM; that for `CC(OC(=O)c1ccc([N+](=O)[O-])s1)C(=O)NC1CCCCC1C` (stereo unspecified), 0.24 µM. As for `O=C(Nc1nccs1)c1ccc(COc2ccc(Cl)cc2)o1`, the IC50 was 10.4 µM (inactive).

Turning to `O=C(NCCCN1CCOCC1)c1c(O)c2cc(Br)cc(Br)c2[nH]c1=O`, the IC50 is 0.8 µM.

Turning to `COC(=O)COc1cccc(NC(=O)c2cccc(C)c2)c1`, the IC50 is 9.25 µM. The result for `Cc1cccc(OC(=O)c2ccc3nccnc3c2)c1` reads 7.79 µM; that for `COC(=O)/C(=C1/Oc2cc(C)oc(=O)c2S1)C(F)(F)F`, below 0.1 µM; that for `O=C(NCCc1c[nH]c2ccccc12)c1cc2ccccc2oc1=O`, 4.78 µM. The result for `COc1cc(C=O)ccc1OCCCCOc1ccccc1[N+](=O)[O-]` reads 27.6 µM (inactive); that for `COC(=O)c1c(NC(=O)c2ccc([N+](=O)[O-])o2)sc2c1CCN(C(C)C)C2`, 0.15 µM; that for `Cc1cc(C)c2sc(NC(=O)C3=COCCO3)nc2c1`, 8.29 µM. Consider `Cc1ccc(C(=O)c2cncc(Br)c2)cc1`, for which the IC50 was 9.3 µM. The result for `Cc1ccc(CSc2nnc(-c3cccnc3)o2)cc1` reads 1.49 µM; that for `CC(C)C(=O)Nc1cccc(-c2nc3ccccc3c(=O)o2)c1`, 3.79 µM.

As to `O=C(N/N=C/C=C/c1cccc([N+](=O)[O-])c1)c1ccncc1`, the IC50 was 24.8 µM (inactive). With `O=C(CCNc1cccc(Cl)c1)c1cccs1`, the IC50 was 11 µM (inactive). In the case of `C/C(=N\NC(=O)c1ccc([N+](=O)[O-])c(C)c1)c1ccccc1Cl` it was 12.2 µM (inactive); in that of `O=C(N[C@@H]1C[C@H]2CC[C@@H]1C2)c1ccco1`, 15.1 µM (inactive); in that of `O=c1cc2[nH]c3ccccc3c(=O)n2nc1-c1ccccc1`, 7.1 µM. In the case of `Cc1cc(N2CCCCC2)nc(NCc2ccccc2)n1` it was 8.38 µM; in that of `O=C(Oc1ccccc1)c1cc2ccccc2o1`, 6.73 µM. In the case of `CCOC(=O)C(Nc1ccc2ccccc2c1)C(=O)OCC` it was 7.7 µM. In the case of `CC(C)Cn1c(=O)c(C(=O)Nc2ccncc2)c(O)c2ccccc21`, the IC50 was 2.86 µM. In the case of `Cc1ccc(-c2nn(-c3ccccc3)cc2/C=N/NC(=O)c2ccncc2)o1` it was 6.11 µM; in that of `O=C(NC12CC3CC(CC(C3)C1)C2)c1ccc([N+](=O)[O-])o1`, 5.44 µM. In the case of `Cc1ccc(-c2noc(CCC(=O)Nc3cccc(C#N)c3)n2)cc1` it was 17.4 µM (inactive); in that of `COc1cccc(COC(=O)CCNC(=O)c2ccc(Br)cc2)c1OC`, 15.6 µM (inactive); in that of `CCCN(CCC)S(=O)(=O)c1ccc(C(=O)Nc2nnc(-c3cccc(OC)c3)o2)cc1`, 11.3 µM (inactive).

With `CCOC(=O)c1nc2sc3c(c2c(=O)[nH]1)CCC(C)C3` (stereo unspecified), the IC50 is below 0.1 µM. As to `O=C(NC(=S)Nc1ccc(F)cc1)C1CCCCC1`, the IC50 was 0.71 µM.

For `CC(C)(C)Nc1nc(NC(C)(C)C)nc(-n2ccnc2)n1`, the IC50 is 23 µM (inactive). Take `Cc1ccc(C)c(NC(=O)c2cc([N+](=O)[O-])cc([N+](=O)[O-])c2)c1`: the IC50 is 28.3 µM (inactive). Take `O=C(Nc1cc(C(F)(F)F)ccc1-n1cncn1)c1ccc([N+](=O)[O-])o1`: the IC50 is 17.9 µM (inactive). The result for `CC(C)(C)c1cc(CN2CCN(CCO)CC2)cc(C(C)(C)C)c1O` reads 3.78 µM; that for `O=c1c2cc(Cl)ccc2nc(-c2ccc(Cl)c(Cl)c2)n1O`, below 0.1 µM; that for `COc1cc(CNCCc2c[nH]c3ccccc23)ccc1OCc1ccc(F)cc1`, 11.5 µM (inactive). In the case of `COc1cc(N=c2ssnc2Cl)cc(OC)c1OC` it was 17.9 µM (inactive); in that of `Cc1ccc(-c2ccc(/C=N/NC(=O)CN3CCOCC3)o2)cc1[N+](=O)[O-]`, 32.2 µM (inactive). As to `O=C(COC(=O)CCc1c[nH]c2ccccc12)Nc1ccc([N+](=O)[O-])cc1`, the IC50 is 9.82 µM.

Take `O=C(COC(=O)c1cc2ccccc2oc1=O)Nc1ccc(F)cc1F`: the IC50 was 10.3 µM (inactive). In the case of `C/C(=N\NC(=O)c1ccncc1)c1cc2ccccc2oc1=O` it was 0.43 µM.

For `Cc1cc(Cl)ccc1OC(C)C(=O)Nc1ccc([N+](=O)[O-])cn1` (stereo unspecified), the IC50 is 23.3 µM (inactive). In the case of `O=[N+]([O-])c1ccc2nc(SCc3cn4cc(Cl)ccc4n3)[nH]c2c1` it was 8.17 µM; in that of `Cc1ccsc1/C=N/NC(=O)c1ccncc1`, 2.05 µM. Regarding `COc1ccc(N=N/C(=C\O)C(=O)c2cccs2)cc1`, the concentration for half-maximal inhibition (IC50) was 9.69 µM.

`CC(C)OC(=O)C(C)Oc1ccc(C(=O)NCCc2ccccc2)cc1` (stereo unspecified): the IC50 was 11.6 µM (inactive).

As to `CC1CC(C)CN(C(=O)COC(=O)c2ccc([N+](=O)[O-])o2)C1` (stereo unspecified), the IC50 was 5.18 µM.

On to `Cc1noc2ncnc(Sc3ccc(Cl)cc3)c12`, for which the IC50 is 10.9 µM (inactive). On to `O=C(Nc1nc2c(F)cc(F)cc2s1)c1ccccn1`, for which the IC50 is 2.12 µM. Take `O=C1NCC(O)=C1C=Nc1ccccc1O`: the IC50 is 6.37 µM. The result for `OC(CNCCc1ccc(C(F)(F)F)cc1)COc1cccc2ccccc12` (stereo unspecified) reads 9.03 µM; that for `Fc1ccc(-c2nnc(CSc3nnc(-c4cccs4)o3)o2)cc1`, 3.68 µM; that for `CC1=C(C)/C(=N\OS(=O)(=O)c2ccccc2)C=CC1=O`, 1.47 µM. As for `Cc1ccc(NC(=O)COc2ccc(-n3ccnc3)cc2)cc1Cl`, the IC50 was 6.44 µM. On to `COc1ccc(-n2c3c(cc(C(=O)NNc4ccccc4)c2=O)C(=O)CC(C)(C)C3)cc1`, for which the IC50 is 17.8 µM (inactive). `O=c1c2cc(Cl)ccc2nc(-c2ccccc2Cl)n1O`: the IC50 is 15.5 µM (inactive). `COCCOC(=O)c1c(C)oc2ccc(OC(=O)c3ccco3)cc12`: the IC50 is 9.15 µM. On to `CCc1ccc(NC(=O)CCc2ccc(C)o2)cc1`, for which the IC50 was 9.6 µM. As to `Cc1nc([N+](=O)[O-])c(Br)n1CC(=O)c1ccc(Cl)cc1`, the IC50 was 5.69 µM.

Consider `CCOC(=O)c1ccc(NC2=CC(=O)C(=O)c3ccccc32)cc1`, for which the IC50 is 9.94 µM.

Regarding `O=C(COc1cccc2ccccc12)Nc1nc2ccccc2[nH]1`, the IC50 is 5.36 µM. In the case of `CSc1ccc(NC(=O)Nc2cccn(Cc3ccccc3)c2=O)cc1`, the IC50 was 19.4 µM (inactive). As for `CC(C)[C@H](NC(=O)c1ccc(Br)cc1)C(=O)NC1CCCCC1`, the IC50 was 1.37 µM.

With `O=[N+]([O-])c1ccc2nc(-c3ccccn3)[nH]c2c1`, the IC50 is 18.3 µM (inactive).

As for `CCCOc1ccc(N2CC(C(=O)Nc3ccccc3F)CC2=O)cc1` (stereo unspecified), the IC50 is 15.8 µM (inactive). As for `O=C(OCC(=O)N1CCc2ccccc21)c1ccc([N+](=O)[O-])cc1`, the IC50 was 12.5 µM (inactive). The result for `Cc1ccc(C(=O)O/N=C(\N)c2cccc([N+](=O)[O-])c2)cc1` reads 7 µM; that for `COC(=O)CC(=O)N1CCN(c2ccc(Cl)c(Cl)c2)CC1`, 5.82 µM.
